The text below walks through data of PMC10375536, “Discovery of High-Affinity Amyloid Ligands Using a Ligand-Based Virtual Screening Pipeline” (Journal of the American Chemical Society, 2023).

Each structure is given as a SMILES string. Like-named read-outs stand apart in the source and are kept apart here. Some results are limits rather than exact numbers.

One may read the Ki as a measure of affinity in units of concentration, obtained from inhibition or displacement.

For assay [1], the target named is Aβ(1-42). The following applies: cited from earlier work.
Assay [2] deals with Aβ(1-42). As to conditions: cited from earlier work. The source holds these as a separate data set.
Assay [3] has as its target T1, Aβ(1–42) fibrils (Homo sapiens, UniProt P05067).
T1 construct: Monomeric Aβ(1-42) (1 mg: Rockland Immunochemicals, Limerick, PA, Lot #31541); purchased Rockland Immunochemicals, Limerick, PA Lot #31541 (a lot number; no catalogue number given)
As to the kind of experiment: Thioflavin T (ThT) fluorescence competition assay. Type of assay: binding. As to conditions: for ThT displacement in competition screen: Aβ(1–42) fibrils (250 nM); for ThT displacement in competition screen / Kd: ThT (1.0 μM), 1× PBS pH 7.4, 25 °C; for Kd: Aβ(1–42) fibrils (500 nM).

The mark [4] stands for this setting: against [3H]BF-227, ref 10.1177/1536012118796297.
The mark [5] stands for this setting: against [125I]BF-180, ref 10.1523/JNEUROSCI.4456-03.2004.
The mark [6] stands for this setting: against [125I]BF-180, ref 10.1385/JMN:24:2:247.
Setting [7] is: against [125I]BF-180, ref 10.1523/JNEUROSCI.1738-05.2005.
Setting [8] is: against [125I]IMSB, ref 10.1016/j.bmcl.2011.08.003.
[9] abbreviates: against [125I]IMSB, ref 10.1021/jm010045q.
The mark [10] stands for this setting: average of fits from at least three independent experiments, read-out: Kd/nM.
The mark [11] stands for this setting: read-out: –log(Kd/M) (converted).
[12] abbreviates: direct binding, ref 10.1007/s00259-012-2261-2.
Where [13] appears, read: direct binding, ref 10.1021/jm010045q.

T1 sequence (P05067 672-713 limits assumed): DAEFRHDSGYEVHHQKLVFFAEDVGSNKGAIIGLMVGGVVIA

As for `COCCOCCOCCOC(=O)/C(C#N)=C/c1ccc2cc(N3CCCCC3)ccc2c1` [ANCA-11], the Kd in assay [1] (direct binding, ref 10.1021/cn200018v) is 1400 nM. In the case of `CNc1ccc(/C=C/c2ccc(OCCOCCOCCF)nc2)cc1` [AV-45, Florbetapir], the inhibition constant (Ki) in assay [2] (setting [4]) is 12 nM. Turning to `Cc1cc(/C=C/c2ccc(N(C)C)cc2)n2c1C=C1C=CC=[N+]1[B-]2(F)F` [BAP-1], the Kd in assay [1] (direct binding, ref 10.1021/cn3000058) was 44.1 nM.

With `CCN(CC)c1ccc(/C=C/c2nc3ccccc3o2)cc1` [BF-125], in assay [2] (setting [5]), the inhibition constant (Ki) is 4.9 nM. Turning to `Nc1ccc(/C=C/c2nc3cc(F)ccc3o2)cc1` [BF-140], the Ki in assay [2] (setting [6]) was 2.1 nM. Consider `CNc1ccc(/C=C/c2nc3cc(F)ccc3o2)cc1` [BF-145], for which, in assay [2] (setting [6]), the Ki is 4.5 nM. With `CNc1ccc(-c2ccc3ccccc3n2)cc1` [BF-158], in assay [2] (setting [7]), the inhibition constant (Ki) was > 5000 nM.

As to `CNc1ccc(/C=C/c2nc3ccc(OCCF)cc3o2)cc1` [BF-168], the Ki in assay [2] (setting [5]) is 6.4 nM.

Take `Nc1ccc(-c2ccc3ccccc3n2)cc1` [BF-170]: the inhibitory constant (Ki) in assay [2] (setting [7]) was > 5000 nM. Take `CNc1ccc(/C=C/c2nc3cc(I)ccc3o2)cc1` [BF-180]: the Kd in assay [1] (direct binding, ref 10.1523/JNEUROSCI.4456-03.2004) was 10.6 nM. For the compound `CN(C)c1ncc(/C=C/c2nc3ccc(OCCF)cc3o2)s1` [BF-227], the Ki in assay [2] (setting [4]) is 12 nM; in assay [2] (against [125I]BF-180, ref 10.2967/jnumed.106.037556) it was 4.3 nM. For the same compound, the Kd in assay [1] (direct binding, ref 10.1177/1536012118796297) was 15.7 nM; in assay [1] (two-site model, Site 1, ref 10.1007/s00259-012-2261-2), 1.72 nM; in assay [1] (two-site model, Site 1, ref 10.1016/j.ejphar.2009.06.042), 1.31 nM; in assay [1] (two-site model, Site 1, ref 10.1021/acs.molpharmaceut.8b00229) it was 0.82 nM; in assay [1] (two-site model, Site 2, ref 10.1007/s00259-012-2261-2) it was 56.1 nM; in assay [1] (two-site model, Site 2, ref 10.1016/j.ejphar.2009.06.042) it was 80 nM. Besides, the Kd in assay [1] (two-site model, Site 2, ref 10.1021/acs.molpharmaceut.8b00229) is 125 nM. As to `O=C(O)c1cc(/N=N/c2ccc(-c3ccc(/N=N/c4ccc(O)c(C(=O)O)c4)cc3)cc2)ccc1O` [CG], the inhibition constant Ki was 0.43 nM in assay [2] (setting [8]) and 0.4 nM in assay [2] (setting [9]). On to `Oc1c(I)cc(Cl)c2cccnc12` [CQ], for which the Kd in assay [1] (direct binding, ref 10.1016/j.bios.2017.06.030) was 86 nM. Regarding `C#CCN(C)CCCOc1ccc(Cl)cc1Cl` [Clorgyline], the inhibition constant (Ki) in assay [2] (setting [4]) was > 9000 nM. In the case of `COc1cc(/C=C/C(=O)CC(=O)/C=C/c2ccc(O)c(OC)c2)ccc1O` [Curcumin], in assay [2] (setting [8]), the inhibition constant Ki was 3.57 nM. For the compound `CN(CCCCc1ccccc1)C(=O)Nc1ccc2c(c1)OCC(=O)N2C` [E163], the “ThT displacement in competition screen” value in assay [3] is listed as “displaced the greatest quantity of ThT”. The Kd in assay [3] (setting [10]) was 200 ± 100 nM; in assay [3] (setting [11]), 158 nM.

`Cc1ccc(C)c2c(C)c(C(=O)N3CCCc4c(OCC(N)=O)cccc43)oc12` [E197]: in assay [3], the “ThT displacement in competition screen” value is “displaced the greatest quantity of ThT”. The values for the Kd in assay [3] (setting [10]) and in assay [3] (setting [11]) were 600 ± 300 nM and 501 nM, respectively. On the same counts, the results for `CCOc1ccc(CCN(C)C(=O)Nc2ccc3c(c2)CCC(=O)N3C)cc1` [E363] are “displaced the greatest quantity of ThT”, 20 ± 10 nM and 25.1 nM. Take `CCOc1ccccc1OCC(=O)Nc1ccc(-c2ncc3n2CCCC3)cc1` [E570]: in assay [3], the “ThT displacement in competition screen” value is recorded as “displaced the greatest quantity of ThT”. The Kd was 20 ± 10 nM in assay [3] (setting [10]) and 25.1 nM in assay [3] (setting [11]). In assay [3] (titration into Aβ(1–42) fibrils (500 nM) and ThT (1.0 μM)), the “bound ThT displaced” value is recorded as “about half”. Regarding `COc1cc(F)c(C(C)NC(=O)NCCN2c3ccccc3CC2C)cc1OC` (stereo not shown) [E704], in assay [3], the “ThT displacement in competition screen” value is listed as “displaced the greatest quantity of ThT”. Also, the Kd in assay [3] (setting [10]) stood at 56 ± 6 nM.

For the compound `CC(=C(C#N)C#N)c1ccc2cc(N(C)CCF)ccc2c1` [FDDNP], the Kd in assay [1] (setting [12]) is 5.52 nM.

Consider `CN(C)c1ccc(/N=N/c2nc3ccc(OCCOCCOCCF)cc3s2)cc1` [FPPDB], for which the inhibition constant (Ki) in assay [2] (against ThS, ref 10.1021/ml200230e) was 20 nM.

Take `CNc1ccc(-c2cc3cc(O)ccc3o2)c(F)n1` [Flutafuranol]: the inhibition constant (Ki) in assay [2] (setting [4]) was 42 nM.

Take `CNc1ccc(-c2nc3ccc(O)cc3s2)cc1F` [Flutemetamol]: in assay [2] (setting [4]), the inhibition constant Ki is 65 nM. With `Cc1cc(-c2ccc(/N=N/c3ccc4c(S(=O)(=O)O)cc(S(=O)(=O)O)c(N)c4c3O)c(C)c2)ccc1/N=N/c1ccc2c(S(=O)(=O)O)cc(S(=O)(=O)O)c(N)c2c1O` [Honson2b (Evan's blue), Evan's blue], the Ki in assay [2] (against ThS, ref 10.1016/j.nbd.2007.07.018) was 180 nM.

As for `CN(C)c1ccc(-c2ccc3cc(-c4nc5ccccc5s4)c(=N)oc3c2)cc1` [ICTAD-1], the Kd in assay [1] (direct binding, ref 10.1039/d0sc02060e) is 3780 nM.

For the compound `COc1ccc(C=Cc2ccc(C=Cc3ccc(OC)c(C(=O)O)c3)c(I)c2)cc1C(=O)O` [IMSB], the inhibitory constant (Ki) in assay [2] (setting [9]) is 0.8 nM. Besides, the Kd in assay [1] (direct binding, ref 10.1021/ja0167147) was 0.73 nM. Consider `Cc1c(OCC(F)(F)F)ccnc1C[S+]([O-])c1nc2ccccc2[nH]1` (stereo not shown) [LNS], for which the Kd in assay [1] (direct binding, ref 10.1021/cn500103u) was 11 nM. On to `CC(C)CC1=[O+][B-](F)(F)OC(/C=C/c2ccc3cc(N(C)C)ccc3c2)=C1` [NAP-OB], for which the Kd in assay [1] (direct binding, ref 10.1016/j.bioactmat.2021.10.047) was 0.62 nM. In the case of `CN(C)c1ccc(/C=C/c2nc3ccc(I)cc3[nH]2)cc1` [SBIM-3], in assay [1] (direct binding, ref 10.1016/j.bmc.2013.02.054), the Kd was 820 nM. As for `COCCOCCn1c2ccccc2c2cc(/C=C/c3cc[n+](C)c4ccccc34)ccc21` [SLM], the Kd in assay [1] (direct binding, ref 10.1021/acsomega.8b00475) was 11400 nM. Regarding `CN(C)c1ccc(/C=C/c2ccc3ccc(OCCF)cc3n2)cc1` [SQ3], in assay [2] (against [125I]ISQ, ref 10.1021/acsmedchemlett.2c00279), the Ki was 230 nM. As to `Nc1ccc(-c2ccc3cc(OCCF)ccc3n2)cc1` [THK-523], the Kd in assay [1] (setting [12]) was 30.3 nM; in assay [1] (direct binding, ref 10.1093/brain/awr038), 20.7 nM. Consider `CN(C)c1ccc(-c2ccc3cc(OCC(O)CF)ccc3n2)cc1` (stereo not shown) [THK-5105], for which, in assay [1] (direct binding, ref 10.2967/jnumed.112.117341), the Kd was 35.9 nM. Take `CN(C)c1ccc(-c2nc3ccc(I)cc3s2)cc1` [TZDM]: the Ki in assay [2] (setting [9]) was > 5000 nM. For the same compound, in assay [1] (setting [13]), the Kd was 0.14 nM. Regarding `Cc1ccc2c(c1)sc(-c1ccc(N(C)C)cc1)[n+]2C` [ThT, Thioflavin T], the inhibition constant Ki in assay [2] (setting [9]) was > 4000 nM. Further, the Kd in assay [1] (direct binding, ref 10.1002/chem.201800501) is 665 nM; in assay [1] (direct binding, ref 10.1016/j.bmc.2011.09.065) it was 2560 nM; in assay [1] (direct binding, ref 10.1021/acs.analchem.2c02532) it was 117 nM; in assay [1] (direct binding, ref 10.1021/acs.jmedchem.5b00571), 32 nM; in assay [1] (direct binding, ref 10.1021/acschemneuro.6b00380), 1940 nM; in assay [1] (direct binding, ref 10.1021/acschemneuro.6b00450), 430 nM. As to `CC1(C)C(/C=C/C2=C(c3ccc(CCC(=O)O)cc3)C(=C/C=C3/N(CCC[N+](C)(C)C)c4ccc(S(=O)(=O)O)cc4C3(C)C)/CCC2)=[N+](CCC[N+](C)(C)C)c2ccc(S(=O)(=O)O)cc21` [ZW800-1C], the Kd in assay [1] (direct binding, ref 10.1038/s41551-023-01003-7) is 78.9 nM.

Regarding `CN(C)c1ccc(-c2cc(-c3ccnc(Br)c3)[nH]n2)cc1` [[11C]MODAG-001], the Kd in assay [1] (direct binding, ref 10.1007/s00259-020-05133-x) is 20 nM. Regarding `CN(C)c1ccc(/N=N/c2nc3ccc(OCCOCCOCCF)cc3s2)cc1` [[18F]FPPDB], the Kd in assay [1] (direct binding, ref 10.1021/ml200230e) was 45.4 nM. `CN(C)c1ccc(C=CC(=O)c2ccc(I)cc2)cc1` [[125I]DMIC]: in assay [1] (direct binding, ref 10.1016/j.bmc.2007.07.052), the Kd was 4.2 nM. With `COc1ccc(/C=C/c2ccc(/C=C/c3ccc(OC)c(C(=O)O)c3)c(I)c2)cc1C(=O)O` [[125I]IMSB], in assay [1] (setting [13]), the Kd was 0.73 nM.

In the case of `O=[N+]([O-])c1ccc2c(c1)Sc1cc(OC/C=C/I)ccc1N2` [[125I]SIL23], in assay [1] (direct binding, ref 10.1371/journal.pone.0055031), the Kd is 635 nM. As to `CN(C)c1ccc(-c2nc3ccc(I)cc3s2)cc1` [[125I]TZDM], the Kd was 0.45 nM in assay [1] (direct binding, ref 10.1016/j.bmc.2011.03.029) and 0.13 nM in assay [1] (direct binding, ref 10.5012/bkcs.2008.29.9.1765). In the case of `O=C(O)c1cc(C=Cc2ccc(C=Cc3ccc(O)c(C(=O)O)c3)c(I)c2)ccc1O` [[125]ISB], in assay [1] (setting [13]), the Kd is 0.15 nM.
